Experimental data reported in patent US7439225B2, “Substances K01-B0171 and process for producing the same” (The Kitasato Institute, priority 2003, dated 2008).
Positions of bridges follow the written chain, without caps; N, C: chain ends. Residues, ends and D or L forms follow the SMILES beside them.

How the values were obtained:
Solubility in solvent = format: physicochemical
[1] = Grouping for acidic, neutral and basic; format: physicochemical

| SMILES | Solubility in solvent (Solubility in solvent) | Grouping for acidic, neutral and basic [1] |
| --- | --- | --- |
| CCC(C)C(NC(=O)C(NC(=O)C(CC(N)=O)NC(=O)C(CO)NC(=O)C(Cc1c[nH]cn1)NC(=O)CNC(=O)C(NC(=O)C(Cc1c[nH]c2ccccc12)NC(=O)C1CCC(=O)NCC(=O)NC(CO)C(=O)NC(CCC(N)=O)C(=O)NC(CC(C)C)C(=O)NC(C(C)C)C(=O)NC(Cc2ccc(O)cc2)C(=O)NC(CCCNC(=N)N)C(=O)N1)C(C)C)C(C)C)C(=O)NC(CCCCN)C(=O)N1CCCC1C(=O)O (stereo not shown) [K01-B0171-B substance] (GSQLVYREWVGHSNVIKP-OH; lactam N-8; configuration not given here) | soluble in water, dimethyl sulfoxide (DMSO), methanol and ethanol, and insoluble in acetonitrile, ethyl acetate, chloroform and acetone | Weak basic substance |
| CCC(C)C(NC(=O)C(NC(=O)C(CC(N)=O)NC(=O)C(CO)NC(=O)C(Cc1c[nH]cn1)NC(=O)CNC(=O)C(NC(=O)C(Cc1c[nH]c2ccccc12)NC(=O)C1CCC(=O)NCC(=O)NC(CO)C(=O)NC(CCC(N)=O)C(=O)NC(CC(C)C)C(=O)NC(C(C)C)C(=O)NC(Cc2ccc(O)cc2)C(=O)NC(CCCNC(=N)N)C(=O)N1)C(C)C)C(C)C)C(=O)NC(CCCCN)C(=O)NCC(=O)N1CCCC1C(=O)N1CCCC1C(=O)O (stereo not shown) [K01-B0171-C substance] (GSQLVYREWVGHSNVIKGPP-OH; lactam N-8; configuration not given here) | soluble in water, dimethyl sulfoxide (DMSO), methanol and ethanol, and insoluble in acetonitrile, ethyl acetate, chloroform and acetone | Weak basic substance |
